Laboratory results reported in ChEMBL document CHEMBL4145544, “Discovery and optimization of 1-(1H-indol-1-yl)ethanone derivatives as CBP/EP300 bromodomain inhibitors for the treatment of castration-resistant prostate cancer” (Eur J Med Chem, 2018).
The source made the active and inactive calls. The calls are words filed in the database; no cut-off is given here.

Assays:
[1] = target: T1, Bromodomain-containing protein 4 (Homo sapiens, UniProt O60885); test: Inhibition of biotinylated-H4KAc4 binding to human His6-tagged BRD4 bromodomain-1 (N44 to E168 residues) expressed in Escherichia coli BL21(DE3) at 50 uM after 2.5 hrs by luminescence-based AlphaScreen assay relative to control
[2] = target: T2, Bromodomain adjacent to zinc finger domain protein 2B (Homo sapiens, UniProt Q9UIF8); test: Inhibition of biotinylated-H4KAc4 binding to human His6-tagged BAZ2B (S1858 to S1972 residues) expressed in Escherichia coli BL21(DE3) at 50 uM after 2.5 hrs by luminescence-based AlphaScreen assay relative to control
[3] = target: T1, Bromodomain-containing protein 4; test: Inhibition of biotinylated-H4KAc4 binding to human His6-tagged BRD4 bromodomain-1 (N44 to E168 residues) expressed in Escherichia coli BL21(DE3) after 2.5 hrs by luminescence-based AlphaScreen assay
[4] = target: T3, Transcription initiation factor TFIID subunit 1 (Homo sapiens, UniProt P21675); test: Inhibition of biotinylated-H4KAc4 binding to human His6-tagged TAF-1 (R1377 to D1503 residues) expressed in Escherichia coli BL21(DE3) after 2.5 hrs by luminescence-based AlphaScreen assay
T3 sequence (P21675 whole entry, the tested form may be a part): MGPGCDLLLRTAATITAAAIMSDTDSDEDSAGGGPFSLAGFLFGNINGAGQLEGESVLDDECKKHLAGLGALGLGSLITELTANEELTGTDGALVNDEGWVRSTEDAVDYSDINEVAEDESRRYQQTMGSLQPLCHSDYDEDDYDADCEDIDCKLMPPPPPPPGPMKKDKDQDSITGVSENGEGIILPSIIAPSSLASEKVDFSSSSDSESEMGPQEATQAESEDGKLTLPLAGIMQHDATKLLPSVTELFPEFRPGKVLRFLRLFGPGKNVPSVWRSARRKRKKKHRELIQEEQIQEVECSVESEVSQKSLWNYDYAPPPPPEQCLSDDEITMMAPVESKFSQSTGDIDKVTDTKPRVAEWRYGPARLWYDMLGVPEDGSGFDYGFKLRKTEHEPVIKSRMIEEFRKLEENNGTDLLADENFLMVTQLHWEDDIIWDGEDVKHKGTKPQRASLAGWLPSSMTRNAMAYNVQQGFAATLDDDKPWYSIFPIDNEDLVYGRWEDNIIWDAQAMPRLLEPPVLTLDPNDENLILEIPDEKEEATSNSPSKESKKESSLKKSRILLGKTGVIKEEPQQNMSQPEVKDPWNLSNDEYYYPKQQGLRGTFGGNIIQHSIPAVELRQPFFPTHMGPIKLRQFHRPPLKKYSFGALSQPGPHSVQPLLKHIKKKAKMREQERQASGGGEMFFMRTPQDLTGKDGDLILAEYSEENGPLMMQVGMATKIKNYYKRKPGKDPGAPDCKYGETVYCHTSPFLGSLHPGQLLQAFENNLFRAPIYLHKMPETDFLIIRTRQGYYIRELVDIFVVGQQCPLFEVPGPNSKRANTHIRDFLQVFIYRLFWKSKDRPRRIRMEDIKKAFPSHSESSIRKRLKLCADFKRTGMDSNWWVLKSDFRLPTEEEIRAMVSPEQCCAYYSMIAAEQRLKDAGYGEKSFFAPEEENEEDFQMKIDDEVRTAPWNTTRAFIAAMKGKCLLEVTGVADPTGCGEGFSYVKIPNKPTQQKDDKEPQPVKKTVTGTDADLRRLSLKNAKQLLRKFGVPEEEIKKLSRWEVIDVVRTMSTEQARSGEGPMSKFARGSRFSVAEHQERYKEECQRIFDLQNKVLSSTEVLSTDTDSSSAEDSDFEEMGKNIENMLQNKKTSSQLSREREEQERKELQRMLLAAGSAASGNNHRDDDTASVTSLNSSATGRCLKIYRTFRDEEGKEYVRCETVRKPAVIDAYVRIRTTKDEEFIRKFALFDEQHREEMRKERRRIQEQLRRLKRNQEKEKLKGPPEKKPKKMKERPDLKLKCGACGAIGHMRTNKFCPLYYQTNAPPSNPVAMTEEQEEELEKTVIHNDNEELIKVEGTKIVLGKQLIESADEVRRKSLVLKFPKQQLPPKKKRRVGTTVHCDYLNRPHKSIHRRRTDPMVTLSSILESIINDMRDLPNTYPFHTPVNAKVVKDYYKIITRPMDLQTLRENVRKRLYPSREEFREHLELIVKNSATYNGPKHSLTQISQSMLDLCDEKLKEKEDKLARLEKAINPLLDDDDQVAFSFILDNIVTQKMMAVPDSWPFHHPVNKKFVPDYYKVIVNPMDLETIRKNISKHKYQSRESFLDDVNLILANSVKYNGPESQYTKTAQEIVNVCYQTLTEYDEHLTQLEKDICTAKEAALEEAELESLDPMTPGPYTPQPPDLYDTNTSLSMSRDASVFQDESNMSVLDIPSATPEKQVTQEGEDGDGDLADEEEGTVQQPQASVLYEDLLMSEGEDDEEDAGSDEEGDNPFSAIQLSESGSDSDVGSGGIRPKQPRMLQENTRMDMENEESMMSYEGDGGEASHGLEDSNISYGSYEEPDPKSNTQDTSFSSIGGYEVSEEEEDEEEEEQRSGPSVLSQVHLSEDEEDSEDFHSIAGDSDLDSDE

[5] = target: T2, Bromodomain adjacent to zinc finger domain protein 2B; test: Inhibition of biotinylated-H4KAc4 binding to human His6-tagged BAZ2B (S1858 to S1972 residues) expressed in Escherichia coli BL21(DE3) after 2.5 hrs by luminescence-based AlphaScreen assay
[6] = target: T4, Bromodomain-containing protein 9 (Homo sapiens, UniProt Q9H8M2); test: Inhibition of biotinylated-H4KAc4 binding to human His6-tagged BRD9 (L14 to Q134 residues) expressed in Escherichia coli BL21(DE3) after 2.5 hrs by luminescence-based AlphaScreen assay
T4 sequence (Q9H8M2 whole entry): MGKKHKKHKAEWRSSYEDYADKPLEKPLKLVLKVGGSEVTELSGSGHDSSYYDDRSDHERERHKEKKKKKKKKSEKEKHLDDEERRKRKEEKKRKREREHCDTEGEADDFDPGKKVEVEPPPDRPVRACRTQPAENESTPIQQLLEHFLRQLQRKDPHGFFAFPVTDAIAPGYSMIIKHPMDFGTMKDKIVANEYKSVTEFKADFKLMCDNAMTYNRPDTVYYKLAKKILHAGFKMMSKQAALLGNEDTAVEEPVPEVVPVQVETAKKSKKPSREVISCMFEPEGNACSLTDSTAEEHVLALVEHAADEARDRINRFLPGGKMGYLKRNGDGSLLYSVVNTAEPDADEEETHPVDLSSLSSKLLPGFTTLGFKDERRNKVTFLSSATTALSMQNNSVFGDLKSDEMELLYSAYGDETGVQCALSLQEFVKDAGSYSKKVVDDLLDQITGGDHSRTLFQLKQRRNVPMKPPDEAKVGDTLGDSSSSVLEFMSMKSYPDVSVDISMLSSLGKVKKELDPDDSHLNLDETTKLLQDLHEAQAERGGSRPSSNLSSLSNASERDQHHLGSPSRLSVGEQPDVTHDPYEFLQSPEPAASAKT

[7] = target: T5, Transcription intermediary factor 1-alpha (Homo sapiens, UniProt O15164); test: Inhibition of biotinylated-H4KAc4 binding to human His6-tagged TIF-1 (G896 to E1014 residues) expressed in Escherichia coli BL21(DE3) after 2.5 hrs by luminescence-based AlphaScreen assay
T5 sequence (O15164 whole entry): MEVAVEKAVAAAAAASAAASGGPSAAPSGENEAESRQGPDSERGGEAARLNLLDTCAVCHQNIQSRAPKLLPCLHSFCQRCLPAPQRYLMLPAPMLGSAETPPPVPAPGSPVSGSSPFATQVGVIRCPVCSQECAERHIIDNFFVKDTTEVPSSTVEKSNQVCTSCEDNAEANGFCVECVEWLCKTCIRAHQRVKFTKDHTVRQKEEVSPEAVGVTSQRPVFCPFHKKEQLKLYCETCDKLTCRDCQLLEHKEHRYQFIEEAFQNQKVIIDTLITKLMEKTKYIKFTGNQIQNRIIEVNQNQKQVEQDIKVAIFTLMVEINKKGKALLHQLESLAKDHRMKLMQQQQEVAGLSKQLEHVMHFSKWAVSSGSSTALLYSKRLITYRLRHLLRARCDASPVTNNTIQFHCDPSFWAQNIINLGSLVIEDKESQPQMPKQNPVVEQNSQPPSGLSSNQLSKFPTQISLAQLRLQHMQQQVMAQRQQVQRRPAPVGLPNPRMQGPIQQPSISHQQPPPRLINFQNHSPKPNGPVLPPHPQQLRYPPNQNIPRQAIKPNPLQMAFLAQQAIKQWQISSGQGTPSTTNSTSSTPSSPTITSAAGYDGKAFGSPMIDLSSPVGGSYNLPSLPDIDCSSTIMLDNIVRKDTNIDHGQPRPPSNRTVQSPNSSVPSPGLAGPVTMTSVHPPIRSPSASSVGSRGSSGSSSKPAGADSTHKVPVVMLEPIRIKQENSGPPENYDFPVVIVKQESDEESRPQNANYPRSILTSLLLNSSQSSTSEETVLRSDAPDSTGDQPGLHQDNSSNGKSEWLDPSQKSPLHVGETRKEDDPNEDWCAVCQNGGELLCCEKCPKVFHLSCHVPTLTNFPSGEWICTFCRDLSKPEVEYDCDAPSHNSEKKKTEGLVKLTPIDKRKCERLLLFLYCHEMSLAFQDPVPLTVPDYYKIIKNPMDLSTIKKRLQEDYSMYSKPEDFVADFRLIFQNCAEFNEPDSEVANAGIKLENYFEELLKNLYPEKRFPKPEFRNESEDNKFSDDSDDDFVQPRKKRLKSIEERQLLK

[8] = target: T6, Histone acetyltransferase KAT2B (Homo sapiens, UniProt Q92831); test: Inhibition of biotinylated-H4KAc4 binding to human His6-tagged PCAF (G715 to D831 residues) expressed in Escherichia coli BL21(DE3) after 2.5 hrs by luminescence-based AlphaScreen assay
Target sequence in this assay (Q92831 whole entry, the tested form may be a part): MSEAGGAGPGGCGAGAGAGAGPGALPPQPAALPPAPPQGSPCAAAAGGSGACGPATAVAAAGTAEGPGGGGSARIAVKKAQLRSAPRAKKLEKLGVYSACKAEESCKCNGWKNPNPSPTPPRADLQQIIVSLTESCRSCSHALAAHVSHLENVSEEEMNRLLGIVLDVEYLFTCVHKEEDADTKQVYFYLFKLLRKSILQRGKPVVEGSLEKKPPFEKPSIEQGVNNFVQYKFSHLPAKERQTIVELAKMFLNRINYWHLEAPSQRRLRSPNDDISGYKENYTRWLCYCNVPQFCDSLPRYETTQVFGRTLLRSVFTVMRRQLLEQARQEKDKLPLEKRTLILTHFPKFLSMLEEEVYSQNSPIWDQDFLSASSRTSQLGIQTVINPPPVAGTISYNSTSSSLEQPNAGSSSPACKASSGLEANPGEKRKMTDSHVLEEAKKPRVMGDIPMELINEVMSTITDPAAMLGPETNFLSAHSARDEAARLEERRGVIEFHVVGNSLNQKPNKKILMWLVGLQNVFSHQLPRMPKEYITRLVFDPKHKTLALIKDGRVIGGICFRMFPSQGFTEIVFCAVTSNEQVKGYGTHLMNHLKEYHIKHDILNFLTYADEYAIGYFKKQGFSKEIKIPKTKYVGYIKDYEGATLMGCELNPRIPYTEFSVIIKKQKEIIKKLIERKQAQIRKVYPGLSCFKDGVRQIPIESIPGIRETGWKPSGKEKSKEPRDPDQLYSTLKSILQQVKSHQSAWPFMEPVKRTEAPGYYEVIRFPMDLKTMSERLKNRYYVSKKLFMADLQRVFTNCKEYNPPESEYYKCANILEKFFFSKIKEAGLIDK

[9] = test system: LNCaP; test: Antiproliferative activity against human LNCAP cells after 72 hrs by Cell-Titer Glo assay; type: functional, cell-based
[10] = test system: CWR22R
Description: (§1) Antiproliferative activity against human 22Rv1 cells after 72 hrs by Cell-Titer Glo assay

[11] = target: T7, CREB-binding protein (Homo sapiens, UniProt Q92793); test: Inhibition of biotinylated-H4KAc4 binding to human His6-tagged CBP (R1081 to G1197 residues) expressed in Escherichia coli BL21(DE3) after 2.5 hrs by luminescence-based AlphaScreen assay
Target sequence in this assay (Q92793 whole entry, the tested form may be a part): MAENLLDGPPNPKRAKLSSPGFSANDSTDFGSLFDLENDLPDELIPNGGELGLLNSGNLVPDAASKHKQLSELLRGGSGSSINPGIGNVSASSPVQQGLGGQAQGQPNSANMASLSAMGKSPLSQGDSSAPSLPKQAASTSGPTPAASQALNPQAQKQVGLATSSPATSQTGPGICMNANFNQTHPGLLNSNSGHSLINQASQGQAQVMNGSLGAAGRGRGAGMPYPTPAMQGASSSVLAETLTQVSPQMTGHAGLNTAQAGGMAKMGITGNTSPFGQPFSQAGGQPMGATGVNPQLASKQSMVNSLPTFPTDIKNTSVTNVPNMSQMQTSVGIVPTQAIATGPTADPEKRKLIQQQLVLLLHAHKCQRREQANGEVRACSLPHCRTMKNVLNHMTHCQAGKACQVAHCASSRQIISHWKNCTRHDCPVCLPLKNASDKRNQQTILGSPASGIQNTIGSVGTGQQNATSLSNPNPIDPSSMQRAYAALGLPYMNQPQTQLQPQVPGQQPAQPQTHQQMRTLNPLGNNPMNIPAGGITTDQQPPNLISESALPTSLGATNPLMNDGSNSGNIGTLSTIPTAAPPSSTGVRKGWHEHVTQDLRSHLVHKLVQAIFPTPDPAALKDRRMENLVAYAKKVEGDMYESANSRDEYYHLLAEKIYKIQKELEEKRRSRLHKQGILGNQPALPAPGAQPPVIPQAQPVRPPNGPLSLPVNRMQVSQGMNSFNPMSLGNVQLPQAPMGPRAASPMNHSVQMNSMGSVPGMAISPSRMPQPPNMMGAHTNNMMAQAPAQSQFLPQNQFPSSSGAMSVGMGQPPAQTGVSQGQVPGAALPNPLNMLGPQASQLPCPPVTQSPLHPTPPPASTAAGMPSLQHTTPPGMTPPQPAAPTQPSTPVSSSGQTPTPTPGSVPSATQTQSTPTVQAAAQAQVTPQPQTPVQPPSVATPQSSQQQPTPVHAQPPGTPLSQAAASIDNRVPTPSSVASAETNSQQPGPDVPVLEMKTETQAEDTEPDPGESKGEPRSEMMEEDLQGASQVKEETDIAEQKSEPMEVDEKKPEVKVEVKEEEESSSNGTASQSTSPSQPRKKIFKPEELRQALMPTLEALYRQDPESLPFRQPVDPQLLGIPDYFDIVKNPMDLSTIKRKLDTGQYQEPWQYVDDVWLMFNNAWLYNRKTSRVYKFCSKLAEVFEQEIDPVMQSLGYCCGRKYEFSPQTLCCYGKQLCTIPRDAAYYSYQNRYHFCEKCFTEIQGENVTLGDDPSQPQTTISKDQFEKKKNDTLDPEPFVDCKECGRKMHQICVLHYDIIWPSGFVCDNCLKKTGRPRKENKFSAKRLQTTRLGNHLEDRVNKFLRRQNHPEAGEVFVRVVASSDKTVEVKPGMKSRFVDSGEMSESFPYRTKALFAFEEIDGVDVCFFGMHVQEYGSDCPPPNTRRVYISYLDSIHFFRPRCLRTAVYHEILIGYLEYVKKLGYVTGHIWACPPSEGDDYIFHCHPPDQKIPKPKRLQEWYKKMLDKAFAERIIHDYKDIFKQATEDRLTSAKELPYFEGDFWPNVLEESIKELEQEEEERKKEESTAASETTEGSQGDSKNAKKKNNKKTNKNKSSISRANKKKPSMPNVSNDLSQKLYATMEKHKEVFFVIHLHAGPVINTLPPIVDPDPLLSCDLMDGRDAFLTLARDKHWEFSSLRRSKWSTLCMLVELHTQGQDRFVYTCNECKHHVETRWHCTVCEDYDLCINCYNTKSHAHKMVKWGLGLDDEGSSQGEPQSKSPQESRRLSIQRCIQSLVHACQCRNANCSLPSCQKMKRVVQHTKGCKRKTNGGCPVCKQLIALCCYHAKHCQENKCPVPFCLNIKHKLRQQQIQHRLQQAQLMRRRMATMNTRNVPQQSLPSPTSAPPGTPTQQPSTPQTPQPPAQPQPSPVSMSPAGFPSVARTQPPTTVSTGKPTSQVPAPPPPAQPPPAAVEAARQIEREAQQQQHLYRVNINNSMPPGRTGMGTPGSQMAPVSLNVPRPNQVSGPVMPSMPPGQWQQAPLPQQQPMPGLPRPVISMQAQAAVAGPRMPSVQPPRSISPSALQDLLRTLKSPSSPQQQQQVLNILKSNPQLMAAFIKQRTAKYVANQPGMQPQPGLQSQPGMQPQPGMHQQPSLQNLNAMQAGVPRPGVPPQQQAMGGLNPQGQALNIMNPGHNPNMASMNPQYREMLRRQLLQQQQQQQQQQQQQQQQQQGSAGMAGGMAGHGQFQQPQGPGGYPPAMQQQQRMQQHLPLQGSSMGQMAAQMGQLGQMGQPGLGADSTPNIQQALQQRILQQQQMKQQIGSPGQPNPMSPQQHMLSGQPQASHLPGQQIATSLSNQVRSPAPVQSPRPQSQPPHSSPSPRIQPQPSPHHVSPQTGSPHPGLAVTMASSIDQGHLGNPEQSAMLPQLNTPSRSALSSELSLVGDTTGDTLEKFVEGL

[12] = target: T8, Histone acetyltransferase p300 (Homo sapiens, UniProt Q09472); test: Inhibition of biotinylated-H4KAc4 binding to human His6-tagged EP300 (A1040 to G1161 residues) expressed in Escherichia coli BL21(DE3) after 2.5 hrs by luminescence-based AlphaScreen assay
[13] = target: T7, CREB-binding protein; test: Binding affinity to human His6-tagged CBP (R1081 to G1197 residues) expressed in Escherichia coli BL21(DE3) assessed as change in melting temperature at 200 uM after 30 mins by SYPRO orange dye based fluorescence assay
[14] = target: T8, Histone acetyltransferase p300; test: Binding affinity to human His6-tagged EP300 (A1040 to G1161 residues) expressed in Escherichia coli BL21(DE3) assessed as change in melting temperature at 200 uM after 30 mins by SYPRO orange dye based fluorescence assay
[15] = target: T6, Histone acetyltransferase KAT2B; test: Binding affinity to human His6-tagged PCAF (G715 to D831 residues) expressed in Escherichia coli BL21(DE3) assessed as change in melting temperature at 200 uM after 30 mins by SYPRO orange dye based fluorescence assay
[16] = target: Bromodomain-containing protein 9 (Homo sapiens) (UniProt Q9H8M2); test: Binding affinity to human His6-tagged BRD9 (L14 to Q134 residues) expressed in Escherichia coli BL21(DE3) assessed as change in melting temperature at 200 uM after 30 mins by SYPRO orange dye based fluorescence assay
[17] = target: T3, Transcription initiation factor TFIID subunit 1; test: Binding affinity to human His6-tagged TAF-1 (R1377 to D1503 residues) expressed in Escherichia coli BL21(DE3) assessed as change in melting temperature at 200 uM after 30 mins by SYPRO orange dye based fluorescence assay
[18] = target: T2, Bromodomain adjacent to zinc finger domain protein 2B; test: Binding affinity to human His6-tagged BAZ2B (S1858 to S1972 residues) expressed in Escherichia coli BL21(DE3) assessed as change in melting temperature at 200 uM after 30 mins by SYPRO orange dye based fluorescence assay
[19] = target: Transcription intermediary factor 1-alpha (Homo sapiens) (UniProt O15164); test: Binding affinity to human His6-tagged TIF-1 (G896 to E1014 residues) expressed in Escherichia coli BL21(DE3) assessed as change in melting temperature at 200 uM after 30 mins by SYPRO orange dye based fluorescence assay
[20] = target: T1, Bromodomain-containing protein 4; test: Binding affinity to human His6-tagged BRD4 bromodomain-1 (N44 to E168 residues) expressed in Escherichia coli BL21(DE3) assessed as change in melting temperature at 200 uM after 30 mins by SYPRO orange dye based fluorescence assay
[21] = test system: CWR22R; test: Anticlonogenic activity against human 22Rv1 cells after 14 days by crystal violet staining based assay; type: functional, cell-based
[22] = test system: LNCaP C4-2B; test: Anticlonogenic activity against human C4-2B cells after 14 days by crystal violet staining based assay; type: functional, cell-based
[23] = test system: LNCaP; test: Potency index, ratio of enzalutamide IC50 to compound IC50 for antiproliferative activity against human LNCAP cells; type: functional
[24] = test system: CWR22R; test: Potency index, ratio of enzalutamide IC50 to compound IC50 for antiproliferative activity against human 22Rv1 cells; type: functional
[25] = test system: CWR22R; test: cells; settings: Homo sapiens, 22Rv1, 72 h
Description: as §1

[26] = Homo sapiens, LNCaP, 72 h, read-out: IC50

Row | Structure (SMILES) | IC50 [3] [µM] | IC50 [4] [µM] | IC50 [5] [µM] | IC50 [6] [µM] | IC50 [7] [µM] | IC50 [8] [µM] | IC50 ([9]; lncap) | IC50 [10] | IC50 [11] [µM] | IC50 [12] [µM] | also measured
1 | COc1ccc(CCc2nc3cc(-c4c(C)noc4C)ccc3n2C[C@H](C)N2CCOCC2)cc1Cl | > 20 | > 20 | > 20 | > 20 | > 20 | > 20 | Not Active | Not Active |  |  | inhibition [1]: 62%; inhibition [2]: 41%
2 | COc1ccc2c(c1)c(C(=O)Nc1cc(C(=O)O)cc(-c3cnn(C)c3)c1F)cn2C(C)=O | > 20 | > 20 | > 20 | > 20 | > 20 | > 20 | Not Active | Not Active | 0.037 | 0.049 | ΔTm [13]: 8.7 °C; ΔTm [14]: 7.2 °C; ΔTm [15]: -0.3 °C; ΔTm [16]: 0.9 °C; ΔTm [17]: 0.6 °C; ΔTm [18]: 0.3 °C; ΔTm [19]: 0 °C; ΔTm [20]: 1.2 °C; Activity [21]: inactive; Activity [22]: inactive
3 | CC(=O)n1cc(C(=O)Nc2cc(COC3CCCCO3)cc(C(=O)O)c2)c2ccccc21 (configuration not stated) | > 20 | > 20 | > 20 | > 20 | > 20 | > 20 |  |  | 1 | 2.51 | 
4 | CC(=O)n1cc(C(=O)Nc2cc(C(=O)O)cc(-c3ccco3)c2)c2ccccc21 | 2.19 | > 20 | 1.69 | > 20 | 10.4 | > 20 |  |  | 0.65 | 0.97 | 
5 | CNC(=O)c1ccc(N2C(=S)N(c3ccc(C#N)c(C(F)(F)F)c3)C(=O)C2(C)C)cc1F [ENZALUTAMIDE] |  |  |  |  |  |  |  |  |  |  | IC50 [9, 26]: 33.8 µM
6 | CC(=O)n1cc(C(=O)Nc2cccc(C(=O)O)c2)c2ccccc21 | > 20 | > 20 | > 20 | > 20 | > 20 | > 20 |  |  | 1.69 | 5.55 | 
7 | COc1ccc2c(c1)c(C(=O)Nc1cc(C(=O)OC(C)(C)C)cc(-c3ccco3)c1)cn2C(C)=O |  |  |  |  |  |  |  |  |  |  | IC50 [9, 26]: 1.76 µM; Ratio IC50 [23]: 17; Ratio IC50 [24]: 17; IC50 [25]: 4.31 µM
8 | COc1ccc2c(c1)c(C(=O)Nc1cc(C(=O)O)cc(-c3ccco3)c1)cn2C(C)=O | > 20 | > 20 | 12.2 | > 20 | > 20 | > 20 | Not Active | Not Active | 0.14 | 1.78 | 
9 | CC(=O)n1cc(C(=O)Nc2cc(C(=O)O)ccc2F)c2ccccc21 | > 20 | > 20 | > 20 | > 20 | > 20 | > 20 |  |  | 0.77 | 4.45 | 
